Measured values reported in patent publication US9464049B2, “Indole-carboxamides” (Hoffmann-La Roche Inc., priority 2013, dated 2016).

Experiments:
[1] = tested on: human embryonic stem cell derived neural stem cells (NSCs); assay: Neural stem cell proliferation assay (neurogenesis assay, ATP levels by CellTiterGlo); assay type: cell-based; conditions: Homo sapiens, Neural stem cell, 96 h; compound concentration at which 150% activity of control (100%) is reached; NSC proliferation by ATP (CellTiterGlo) after 4 days incubation; dose response 8 μM to 8 nM
Protocol: Neural Stem Cell Proliferation Assay
Neurogenic properties of small molecules are determined based on the proliferation of human embryonic stem cell derived neural stem cells (NSCs) which were derived via a dual smad inhibition as previously described (Chambers, S. M., et al., Highly efficient neural conversion of human ES and iPS cells by dual inhibition of SMAD signaling, Nature biotechnology, 2009. 27(3): p. 275-80.)
Compounds respond is measured by the increase in cells based on ATP levels (Promega:CellTiterGlo®) after an incubation period of 4 days.
NSCs are thawed and expanded over 3 passages. On the 14th day, NSCs are seeded in Polyornithin/Laminin coated 384 well plates at a cell density of 21,000 cells/cm^2 in a media volume of 38 μl.
4 hours after cell seeding, compound solutions are added at a volume of 2 μl. Stock solutions of the compounds (water, 5% DMSO) are diluted to obtain a dose response (11 points, dilution factor is 2), ranging from 8 μM to 8 nM. Controls are run to consistently determine the neurogenic properties of the cells: • Negative (neutral) control is cell culture Media (final DMSO concentration: 0.25%). • Positive controls are: • 1. cell culture Media+100 ng/ml FGF2 (final DMSO concentration: 0.1%) • 2. cell culture Media+20 ng/ml EGF (final DMSO concentration: 0.1%) • 3. cell culture Media+100 ng/ml Wnt3a (final DMSO concentration: 0.1%)
After 4 days incubation at 37° C., 5% CO2, the amount of ATP per well is quantified. The ATP concentration is proportional to the cell number. ATP is quantified by using the Promega CellTiterGlo® kit. The CellTiterGlo® reagents contain a cell lysis buffer, a thermo stable luciferase (UltraGlo™ recombinant luciferase), magnesium and luciferin. Luciferin reacts with ATP producing oxyluciferin, AMP and light. The luminescence signal is proportional to the ATP content.
The value of negative (neutral) control is determined for each assay plate by taking the average of 16 negative control wells. The neurogenic compound response is calculated for each compound as (compound/Negative Control)*100.
The values of EC150 from the dose response curve are determined for each test compound. The EC150 is the compound concentration at which 150% activity of control (100%) is reached.

melting point [°C] | Compound | EC (150% of control) [1] [µM]
209 | Cc1c(C(N)=O)[nH]c2c(-c3ccc(F)c(F)c3F)cc(F)cc12 [Example 75, 5-Fluoro-3-methyl-7-(2,3,4-trifluorophenyl)-1H-indole-2-carboxamide] | 0.082
208 | Cc1c(C(N)=O)[nH]c2c(-c3ccc(F)c(F)c3)cc(F)cc12 [Example 47, 7-(3,4-Difluorophenyl)-5-fluoro-3-methyl-1H-indole-2-carboxamide] | 0.052
202 | Cc1c(C(N)=O)n(C)c2c(-c3ccc(F)cc3)cc(F)cc12 [Example 49, 5-Fluoro-7-(4-fluorophenyl)-1,3-dimethylindole-2-carboxamide] | 0.17
247 | N#Cc1cc(-c2ccc(OC(F)(F)F)cc2)c2[nH]c(C(N)=O)cc2c1 [Example 44, 5-Cyano-7-[4-(trifluoromethoxy)-phenyl]-1H-indole-2-carboxamide] | 0.17
181 | Cc1c(C(N)=O)n(C)c2c(-c3ccc(OC(F)(F)F)cc3)cc(Cl)cc12 [Example 27, 5-Chloro-1,3-dimethyl-7-[4-(trifluoromethoxy)-phenyl]indole-2-carboxamide] | 3.67
198 | Cc1c(C(N)=O)[nH]c2c(-c3ccc(Cl)cc3Cl)cc(F)cc12 [Example 56, 7-(2,4-Dichlorophenyl)-5-fluoro-3-methyl-1H-indole-2-carboxamide] | 0.027
192 | Cn1c(C(N)=O)cc2cc(C#N)cc(-c3ccc(Cl)cc3F)c21 [Example 58, 7-(4-Chloro-2-fluorophenyl)-5-cyano-1-methylindole-2-carboxamide] | 1.67
234 | N#Cc1cc(-c2ccc(F)cc2)c2[nH]c(C(N)=O)cc2c1 [Example 34, 5-Cyano-7-(4-fluorophenyl)-1H-indole-2-carboxamide] | 0.057
199 | Cc1c(C(N)=O)n(C)c2c(-c3ccc(C#N)cc3)cc(Cl)cc12 [Example 28, 5-Chloro-7-(4-cyanophenyl)-1,3-dimethylindole-2-carboxamide] | 1.06
200 | Cc1c(C(N)=O)[nH]c2c(-c3ccc(F)cc3F)cc(F)cc12 [Example 55, 7-(2,4-Difluorophenyl)-5-fluoro-3-methyl-1H-indole-2-carboxamide] | 0.026
200 | Cc1c(C(N)=O)[nH]c2c(-c3ccc(C(F)(F)F)cc3)cc(F)cc12 [Example 48, 5-Fluoro-3-methyl-7-[4-(trifluoromethyl)-phenyl]-1H-indole-2-carboxamide] | 0.11
171 | Cn1c(C(N)=O)cc2cc(C#N)cc(-c3ccc(C(F)(F)F)cc3)c21 [Example 37, 5-Cyano-1-methyl-7-[4-(trifluoromethyl)-phenyl]-indole-2-carboxamide] | 2.62
169 | Cc1c(C(N)=O)n(C)c2c(-c3ccc(Cl)cc3Cl)cc(F)cc12 [Example 61, 7-(2,4-Dichlorophenyl)-5-fluoro-1,3-dimethylindole-2-carboxamide] | 0.21
236 | Cn1c(C(N)=O)cc2cc(C#N)cc(-c3ccc([N+](=O)[O-])cc3)c21 [Example 67, 5-Cyano-1-methyl-7-(4-nitrophenyl)-indole-2-carboxamide] | 2.05
230 | Cc1c(C(N)=O)[nH]c2c(-c3ccc(C#N)cc3)cc(F)cc12 [Example 53, 7-(4-Cyanophenyl)-5-fluoro-3-methyl-1H-indole-2-carboxamide] | 0.04
178 | Cc1c(C(N)=O)n(C)c2c(-c3ccc(F)cc3)cc(Cl)cc12 [Example 13, 5-Chloro-7-(4-fluorophenyl)-1,3-dimethylindole-2-carboxamide] | 1.64
156 | Cn1c(C(N)=O)cc2cc(F)cc(-c3ccc(F)cc3)c21 [Example 2, 5-Fluoro-7-(4-fluoro-phenyl)-1-methylindole-2-carboxamide] | 1.4

melting point [°C] | Compound | EC (150% of control) [1] [µM]
255 | COc1ccc(-c2cc(C#N)cc3cc(C(N)=O)[nH]c23)cc1 [Example 72, 5-Cyano-7-(4-methoxyphenyl)-1H-indole-2-carboxamide] | 0.19
196 | Cc1c(C(N)=O)n(C)c2c(-c3ccc(F)c(F)c3)cc(Cl)cc12 [Example 17, 5-Chloro-7-(3,4-difluorophenyl)-1,3-dimethylindole-2-carboxamide] | 3.3
247 | Cc1cc(-c2cc(C#N)cc3cc(C(N)=O)[nH]c23)ccc1F [Example 66, 5-Cyano-7-(4-fluoro-3-methylphenyl)-1H-indole-2-carboxamide] | 0.62
299 | N#Cc1ccc(-c2cc(C#N)cc3cc(C(N)=O)[nH]c23)cc1 [Example 43, 5-Cyano-7-(4-cyanophenyl)-1H-indole-2-carboxamide] | 0.2
171 | Cc1c(C(N)=O)n(C)c2c(-c3ccc(OC(F)(F)F)cc3)cc(F)cc12 [Example 60, 5-Fluoro-1,3-dimethyl-7-[4-(trifluoromethoxy)phenyl]indole-2-carboxamide] | 0.22
267 | Cc1c(C(N)=O)[nH]c2c(-c3ccc(C#N)cc3)cc(Cl)cc12 [Example 23] | 0.28
286.5 | N#Cc1cc(-c2ccc(Cl)cc2F)c2[nH]c(C(N)=O)cc2c1 [Example 57, 7-(4-Chloro-2-fluorophenyl)-5-cyano-1H-indole-2-carboxamide] | 0.066
206.5 | Cn1c(C(N)=O)cc2cc(C#N)cc(-c3ccc(F)cc3F)c21 [Example 62, 5-Cyano-7-(2,4-difluorophenyl)-1-methylindole-2-carboxamide] | 0.12
283 | Cc1c(C(N)=O)[nH]c2c(-c3ccc(Cl)c(F)c3)cc(Cl)cc12 [Example 31, 5-Chloro-7-(4-chloro-3-fluorophenyl)-3-methyl-1H-indole-2-carboxamide] | 0.43
222 | Cc1c(C(N)=O)n(C)c2c(-c3ccc(C(F)(F)F)cc3)cc(F)cc12 [Example 51, 5-Fluoro-1,3-dimethyl-7-[4-(trifluoromethyl)-phenyl]-indole-2-carboxamide] | 0.13
192 | Cc1c(C(N)=O)n(C)c2c(-c3ccc(Cl)c(F)c3)cc(Cl)cc12 [Example 32, 5-Chloro-7-(4-chloro-3-fluorophenyl)-1,3-dimethylindole-2-carboxamide] | 1.02
237 | Cc1c(C(N)=O)n(C)c2c(-c3ccc(Cl)cc3)cc(C#N)cc12 [Example 1, 7-(4-Chloro-phenyl)-5-cyano-1,3-dimethylindole-2-carboxamide] | 0.14
184.5 | Cn1c(C(N)=O)cc2cc(C#N)cc(-c3ccc(F)c(F)c3)c21 [Example 40, 5-Cyano-7-(3,4-difluorophenyl)-1-methylindole-2-carboxamide] | 0.2
176 | Cn1c(C(N)=O)cc2cc(C#N)cc(-c3ccc(OC(F)(F)F)cc3)c21 [Example 73, 5-Cyano-1-methyl-7-[4-(trifluoromethoxy)phenyl]indole-2-carboxamide] | 7.5
268 | Cc1c(C(N)=O)[nH]c2c(-c3ccc(F)cc3)cc(C#N)cc12 [Example 9, 5-Cyano-7-(4-fluorophenyl)-3-methyl-1H-indole-2-carboxamide] | 0.22
207 | Cc1c(C(N)=O)[nH]c2c(-c3ccc(OC(F)(F)F)cc3)cc(C#N)cc12 [Example 19, 5-Cyano-3-methyl-7-[4-(trifluoromethoxy)-phenyl]-1H-indole-2-carboxamide] | 1.13
176 | Cn1c(C(N)=O)cc2cc(C#N)cc(-c3ccc(Cl)cc3)c21 [Example 39, 7-(4-Chlorophenyl)-5-cyano-1-methylindole-2-carboxamide] | 0.18
